In brackets after ≈: the same amount, converted by molar mass.
Columns and labels:
TE-671 = test: Cytotoxicity in TE671 cell line; type: functional, cell-based; details: Homo sapiens
RPMI-7951 = test: Cytotoxicity in RPMI-7951 cell line; type: functional, cell-based; details: Homo sapiens
HCT-8 = test: Cytotoxicity in HCT-8 cell line; type: functional, cell-based; details: Homo sapiens
Oryctolagus cuniculus = species on record: Oryctolagus cuniculus; test: Compound was tested for inhibition of platelet aggregation induced by arachidonic acid(100 uM) at a dose of 10 ug/mL in rabbit; type: functional
P388 = test: Cytotoxicity in P-388 cell line; type: functional, cell-based; details: Mus musculus

Question: For `COC1=CC(=O)c2[nH]c3cc(O)c(C)cc3c2C1=O`, which IC50 (TE-671) is on record?
Answer: The IC50 was 3.82 µg/mL (≈ 14.8 µM).

Question: What about the IC50 (RPMI-7951) of the same compound?
Answer: The IC50 was 0.22 µg/mL (≈ 0.855 µM).

Question: And the IC50 (HCT-8)?
Answer: The IC50 was 0.92 µg/mL (≈ 3.58 µM).

Question: Which results are given for `COC1=CC(=O)c2[nH]c3ccc(C)c(O)c3c2C1=O`?
Answer: IC50 (TE-671): 0.17 µg/mL (≈ 0.661 µM); Inhibition (Oryctolagus cuniculus): 100%; IC50 (RPMI-7951): 0.33 µg/mL (≈ 1.28 µM); IC50 (P388): 2.24 µg/mL (≈ 8.71 µM); IC50 (HCT-8): 1.82 µg/mL (≈ 7.07 µM)

Reference: ChEMBL document CHEMBL1127996, “Structure and synthesis of clausenaquinone-a. A novel carbazolequinone alkaloid and bioactive principle from Clausena excavata” (Bioorg Med Chem Lett, 1994)
